Literature values as cited in patent US7510874B2, “Stable cell lines expressing HERG1a and HERG1b” (priority 2003, dated 2009).

Target: IKr currents (Homo sapiens, UniProt Q12809)
Conditions: background statement with literature references

Sequence of IKr currents (Q12809 whole entry): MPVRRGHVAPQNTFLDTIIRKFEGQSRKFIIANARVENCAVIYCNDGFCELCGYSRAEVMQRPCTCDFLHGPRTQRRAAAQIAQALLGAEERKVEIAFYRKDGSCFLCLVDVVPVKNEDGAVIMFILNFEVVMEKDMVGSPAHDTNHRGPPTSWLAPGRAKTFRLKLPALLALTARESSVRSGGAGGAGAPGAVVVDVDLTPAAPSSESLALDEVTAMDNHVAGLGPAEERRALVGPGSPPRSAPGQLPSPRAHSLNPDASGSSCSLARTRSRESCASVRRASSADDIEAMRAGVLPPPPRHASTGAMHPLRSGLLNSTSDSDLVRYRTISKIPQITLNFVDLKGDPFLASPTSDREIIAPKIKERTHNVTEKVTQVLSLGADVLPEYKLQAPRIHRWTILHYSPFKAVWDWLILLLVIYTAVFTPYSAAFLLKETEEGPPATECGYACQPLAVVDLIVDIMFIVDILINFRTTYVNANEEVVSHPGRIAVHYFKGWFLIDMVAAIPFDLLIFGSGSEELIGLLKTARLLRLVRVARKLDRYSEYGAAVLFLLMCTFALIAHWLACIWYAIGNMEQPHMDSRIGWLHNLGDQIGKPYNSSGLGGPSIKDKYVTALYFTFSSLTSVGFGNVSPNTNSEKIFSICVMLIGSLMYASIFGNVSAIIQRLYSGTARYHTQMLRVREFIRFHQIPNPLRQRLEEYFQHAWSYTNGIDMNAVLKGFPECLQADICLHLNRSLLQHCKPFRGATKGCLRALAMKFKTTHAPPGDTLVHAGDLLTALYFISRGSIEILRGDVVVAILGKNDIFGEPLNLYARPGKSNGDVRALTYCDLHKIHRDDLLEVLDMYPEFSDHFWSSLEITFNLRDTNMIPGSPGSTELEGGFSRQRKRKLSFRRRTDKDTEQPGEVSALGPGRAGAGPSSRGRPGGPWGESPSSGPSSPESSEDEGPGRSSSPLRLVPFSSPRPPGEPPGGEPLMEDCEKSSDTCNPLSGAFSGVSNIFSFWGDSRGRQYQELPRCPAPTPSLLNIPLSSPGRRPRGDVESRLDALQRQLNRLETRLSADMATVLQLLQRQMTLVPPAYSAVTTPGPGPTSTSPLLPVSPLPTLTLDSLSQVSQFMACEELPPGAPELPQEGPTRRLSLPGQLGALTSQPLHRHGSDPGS

COc1cc(N)c(Cl)cc1C(=O)NC1CCN(CCCOc2ccc(F)cc2)CC1OC (stereo not shown) [cisapride]
block of IKr currents (cause of acquired LQTS): block of IKr currents
